Assay results: US7759373B2, “Large conductance calcium-activated K channel opener” (Mitsubishi Tanabe Pharma Corporation, priority 2001, dated 2010)

What was measured:
[1] = test system: isolated rabbit urinary bladder; experiment: Relaxation effect on potassium-induced contraction of isolated rabbit urinary bladder; assay type: cell-based; conditions: Oryctolagus cuniculus; 50% relaxation concentration; high-K+ (30 mM) pre-contracted rabbit bladder strips; relaxation as percentage of the maximum produced by 0.1 mM papaverine; read-out: EC50 value range
How it was run: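 Mucosa-free longitudinal bladder strips from male NZW rabbits, held at 37 °C in Krebs solution gassed with 95% O2/5% CO2, were precontracted with 30 mM K+. Compounds were added cumulatively (10^−8–10^−4 M), with isometric relaxation expressed relative to 0.1 mM papaverine maximum. EC50 was derived and reported as rank ranges.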

[2] = test system: rhythmic bladder contractions induced by substance P; experiment: Inhibitory effect on the rhythmic bladder contractions induced by substance P in anesthetized rats; assay type: in vivo, rat; conditions: time during which frequency of rhythmic contraction was completely inhibited, 0.25 mg/kg of the compound, substance P infusion
How it was run: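 Urethane-anesthetized female Sprague-Dawley rats with rhythmic bladder contractions driven by i.v. substance P (0.33 μg/kg/min). Compound given i.v. in saline/0.5% Tween 80 once contractions stable 15 min; intravesical pressure monitored, duration of 100% inhibition ranked A ≥20, B ≥10, C <10 min.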

EC50 [1] [nM]	SMILES	100% inhibition time range [2]
≤ 500	Cc1ccc(-c2nc(CC(=O)O)c(-c3ccc(Cl)s3)o2)cn1 [Preparation Example 452]	B (A≧20>B≧10>C (minute))
1000 to 3000	Cc1ccc(-c2nc(CC(=O)O)c(-c3ccccc3)o2)cc1 [Preparation Example 262]	C (A≧20>B≧10>C (minute))
1000 to 3000	CN(C)c1ncc(-c2nc(CC(=O)O)c(-c3ccc(Cl)s3)o2)cn1 [Preparation Example 362]	A (A≧20>B≧10>C (minute))
≤ 500	FCCc1nc(-c2ccc(F)cc2)[nH]c1-c1ccccc1 [Preparation Example 182]	B (A≧20>B≧10>C (minute))
500 to 1000	Cc1nc(-c2ccc(F)cc2)[nH]c1-c1cccnc1 [Preparation Example 187]	B (A≧20>B≧10>C (minute))
500 to 1000	CCc1nc(-c2ccc(C#N)cc2)[nH]c1-c1cccnc1 [Preparation example 53]	C (A≧20>B≧10>C (minute))
≤ 500	O=C(O)Cc1sc(-c2ccc(F)cc2)nc1-c1ccsc1 [Preparation Example 594]	C (A≧20>B≧10>C (minute))
1000 to 3000	Cc1nc(-c2csc(Cl)c2)[nH]c1-c1cccnc1 [Preparation example 54]	B (A≧20>B≧10>C (minute))
1000 to 3000	C[S+]([O-])Cc1[nH]c(-c2ccc(F)cc2)nc1-c1ccccc1 (centres unmarked) [Preparation example 639]	C (A≧20>B≧10>C (minute))
≤ 500	O=C(O)Cc1nc(-c2ccc3occc3c2)oc1-c1cc(Cl)cs1 [Preparation Example 288]	C (A≧20>B≧10>C (minute))
1000 to 3000	CC(C)c1ccc(-c2oc(-c3ccc(F)cc3)nc2CC(=O)O)cc1 [Preparation Example 248]	B (A≧20>B≧10>C (minute))
1000 to 3000	CCc1nc(-c2csc(Cl)c2)[nH]c1-c1cccnc1 [Preparation example 55]	B (A≧20>B≧10>C (minute))
500 to 1000	CN(C)c1ccc(-c2nc(-c3cccs3)c(CC(=O)O)s2)cn1 [Preparation Example 579]	C (A≧20>B≧10>C (minute))
≤ 500	O=C(O)Cc1nc(-c2nc3ccccc3s2)oc1-c1ccc(Cl)s1 [Preparation Example 446]	C (A≧20>B≧10>C (minute))
≤ 500	O=C(O)Cc1nc(-c2ccc(F)cc2)oc1-c1ccc(Br)s1 [Preparation Example 256]	C (A≧20>B≧10>C (minute))
1000 to 3000	CCCc1nc(-c2cccc(F)c2)[nH]c1-c1ccccc1 [Preparation example 30]	B (A≧20>B≧10>C (minute))
500 to 1000	CCc1nc(-c2ccc(F)cc2)[nH]c1-c1cncs1 [Preparation example 86]	B (A≧20>B≧10>C (minute))
500 to 1000	O=C(O)Cc1nc(-c2ccc3c(c2)CCO3)oc1-c1ccc(Cl)s1 [Preparation Example 282]	B (A≧20>B≧10>C (minute))
1000 to 3000	O=C(O)Cc1nc(-c2ccc(F)cc2)oc1-c1csc2ccccc12 [Preparation Example 158]	C (A≧20>B≧10>C (minute))
1000 to 3000	CSc1ccc(-c2nc(CC(=O)[O-])c(-c3ccsc3)o2)cn1.[Na+] [Preparation Example 365, 2-(6-methylthiopyridin-3-yl)-5-(3-thienyl)oxazol-4-yl acetic acid sodium salt]	B (A≧20>B≧10>C (minute))
500 to 1000	CCCc1nc(-c2ccc(F)cc2)[nH]c1-c1cccc(F)c1 [Preparation example 99]	B (A≧20>B≧10>C (minute))
1000 to 3000	COc1ccc(-c2nc(CC(=O)O)c(-c3cccs3)o2)cc1 [Preparation Example 155]	B (A≧20>B≧10>C (minute))
